Inhibition and Activity data for six compounds are collected here from ChEMBL document CHEMBL4257515, “Assessment of the trifluoromethyl ketone functionality as an alternative zinc-binding group for selective HDAC6 inhibition” (Medchemcomm, 2018).

Active and inactive are the calls of the source. No cut-off for these calls is given here.

Assay [1] addresses T1, Protein deacetylase HDAC6 (Homo sapiens) (UniProt Q9UBN7).
T1 sequence (whole entry): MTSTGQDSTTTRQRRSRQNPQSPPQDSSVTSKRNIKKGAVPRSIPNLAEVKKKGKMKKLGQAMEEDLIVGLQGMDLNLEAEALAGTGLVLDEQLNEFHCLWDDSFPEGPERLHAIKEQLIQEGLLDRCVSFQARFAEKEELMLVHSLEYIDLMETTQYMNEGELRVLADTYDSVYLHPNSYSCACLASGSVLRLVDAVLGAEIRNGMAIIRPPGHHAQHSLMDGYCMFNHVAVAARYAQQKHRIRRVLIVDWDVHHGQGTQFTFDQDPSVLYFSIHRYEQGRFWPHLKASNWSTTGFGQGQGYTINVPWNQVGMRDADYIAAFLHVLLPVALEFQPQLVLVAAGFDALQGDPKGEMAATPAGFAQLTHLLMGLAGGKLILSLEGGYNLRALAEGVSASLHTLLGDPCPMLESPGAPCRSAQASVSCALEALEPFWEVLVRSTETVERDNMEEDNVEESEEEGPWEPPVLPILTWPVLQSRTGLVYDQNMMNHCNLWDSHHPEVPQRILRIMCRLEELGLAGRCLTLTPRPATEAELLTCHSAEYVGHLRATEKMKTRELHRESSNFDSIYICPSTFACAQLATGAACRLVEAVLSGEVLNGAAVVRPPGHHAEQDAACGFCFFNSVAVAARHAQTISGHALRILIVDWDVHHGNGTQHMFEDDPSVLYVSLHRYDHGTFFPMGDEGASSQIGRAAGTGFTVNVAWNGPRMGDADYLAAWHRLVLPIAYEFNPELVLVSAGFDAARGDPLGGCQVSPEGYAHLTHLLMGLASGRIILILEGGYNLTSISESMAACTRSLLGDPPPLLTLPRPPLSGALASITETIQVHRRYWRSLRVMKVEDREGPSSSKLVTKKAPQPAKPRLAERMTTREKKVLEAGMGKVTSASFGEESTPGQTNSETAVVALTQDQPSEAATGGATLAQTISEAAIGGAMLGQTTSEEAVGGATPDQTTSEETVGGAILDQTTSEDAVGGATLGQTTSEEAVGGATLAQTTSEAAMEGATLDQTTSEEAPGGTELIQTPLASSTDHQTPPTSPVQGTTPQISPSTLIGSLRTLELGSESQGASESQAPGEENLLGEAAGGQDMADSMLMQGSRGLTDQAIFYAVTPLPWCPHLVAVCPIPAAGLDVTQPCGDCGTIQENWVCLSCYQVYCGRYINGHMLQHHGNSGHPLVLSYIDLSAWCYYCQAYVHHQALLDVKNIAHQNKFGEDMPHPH
The experiment in a line: Inhibition of full length recombinant human HDAC6 at 10 uM using Fluor-de-Lys deacetylase as substrate preincubated for 15 mins followed by substrate addition and measured after 60 mins by spectrofluorimetric method relative to control.

Assay [2] has as its target T1, Protein deacetylase HDAC6 (Homo sapiens). Nature of the assay: Inhibition of HDAC6 in human SKOV3 cells assessed as increase in acetylated tubulin levels at 1 uM after 1 hr by immunoblot method. Format: cell-based.
The test system of assay [3] is SK-OV-3. Nature of the assay: Antiproliferative activity against human SKOV3 cells at 10 uM measured every 2 hrs for 200 hrs by IncuCyte ZOOM cell confluence assay. Format: functional, cell-based.
For assay [4], the target named is T1, Protein deacetylase HDAC6 (Homo sapiens). The experiment in a line: Inhibition of HDAC6 in human SKOV3 cells assessed as increase in acetylated tubulin levels at 1 to 50 uM after 1 hr by immunoblot method. Format: cell-based. Background: A western blot detects proteins with antibodies after separation by electrophoresis.
The target of assay [5] is Histone deacetylase (Homo sapiens) (UniProt Q13547+O15379+Q9UBN7+Q92769+Q9UQL6+Q8WUI4+Q9BY41+Q96DB2+P56524+Q9UKV0+Q969S8). The experiment in a line: Inhibition of nuclear HDAC in human SKOV3 cells assessed as increase in acetylated histone H3 levels at 1 to 50 uM after 1 hr by immunoblot method. The class given is cell-based.
Assay [6] concerns SK-OV-3. The experiment in a line: Antiproliferative activity against human SKOV3 cells at 1 to 50 uM measured every 2 hrs for 200 hrs by IncuCyte ZOOM cell confluence assay. The class given is functional, cell-based.

The inhibition is the drop in the measured response relative to a control, in per cent. `O=C(NO)c1ccc(Cn2c3c(c4cc(F)ccc42)C[S+]([O-])CC3)cc1` (stereo not given): the inhibition in assay [1] amounted to 100%. Also, the inhibition entry in assay [2] was “Active”.

Turning to `O=C(CCCCCCC(=O)Nc1ccccc1)NO`, in the assay on SK-OV-3 [3], the result was Active.

Consider `O=C(c1ccccc1)C(F)(F)F`, for which the inhibition in assay [1] was found to be 0%.

On to `O=C(NO)c1ccccc1`, for which the inhibition in assay [1] is 88%.

Regarding `O=C(c1ccc(Cn2c3c(c4cc(F)ccc42)C[S+]([O-])CC3)cc1)C(F)(F)F` (stereo not given), the inhibition in assay [1] is 25%. The inhibition entry in assay [4] and in assay [5] was “inactive” each time. Besides, in the assay on SK-OV-3 [6], the result was inactive.

On to `O=C(c1ccc(Cn2c3c(c4ccccc42)C[S+]([O-])CC3)cc1)C(F)(F)F` (stereo not given), for which the inhibition in assay [1] stood at 17%.
